Data published in the supplement of paper PMC10307832.

What was measured:
Assay in all cases: relative viability (nuclei count vs DMSO), 5 days (fraction); higher = more cells survive
[1] = compound: CC1=CC(=C(N1C2=CC=C(C=C2)Cl)C)C(=O)CN3CCCCC3 [IU1-47] + COc1cccc2cc(-c3nc([C@H]4CC[C@H](C(=O)O)CC4)n4ncnc(N)c34)[nH]c12 [OSI-027] (partner 0.5 µM)
In short: (§1)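 Lung cancer cell lines, seeded in 1536-well plates, were treated the following day by pin tool with a single drug or with five library-drug doses (not always all listed) in √10 steps on top of a fixed anchor-drug dose. Cells were fixed and nuclei stained in one step after 5 days, and nuclei were counted. Relative viability is the nuclei count for treated wells divided by that for vehicle wells, reported as medians of duplicate plates.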

[2] = compound: CC1=CC(=C(N1C2=CC=C(C=C2)Cl)C)C(=O)CN3CCCCC3 [IU1-47] + CS(=O)(=O)N1CCN(Cc2cc3nc(-c4cccc5[nH]ncc45)nc(N4CCOCC4)c3s2)CC1 [Pictilisib] (partner 1 µM)
In short: as §1

[3] = compound: Cc1nc(C(=O)NCC(=O)O)c(O)c2ccc(Oc3ccccc3)cc12 [FG-4592] + CS(=O)(=O)CCNCc1ccc(-c2ccc3ncnc(Nc4ccc(OCc5cccc(F)c5)c(Cl)c4)c3c2)o1 [Lapatinib] (partner 2 µM)
In short: as §1

[4] = compound: Cc1nc(C(=O)NCC(=O)O)c(O)c2ccc(Oc3ccccc3)cc12 [FG-4592] + Cc1nc(Nc2ncc(C(=O)Nc3c(C)cccc3Cl)s2)cc(N2CCN(CCO)CC2)n1 [Dasatinib] (partner 0.075 µM)
In short: as §1

Row | Cell Line | relative viability ([1]; first compound 0.08 µM) | relative viability ([1]; first compound 0.253 µM) | relative viability ([1]; first compound 0.8 µM) | relative viability ([1]; first compound 2.53 µM) | relative viability ([1]; first compound 8 µM) | relative viability ([2]; first compound 0.08 µM) | relative viability ([2]; first compound 0.253 µM) | relative viability ([2]; first compound 0.8 µM) | relative viability ([2]; first compound 8 µM) | relative viability ([3]; first compound 0.253 µM) | relative viability ([3]; first compound 0.8 µM) | relative viability ([3]; first compound 2.53 µM) | relative viability ([3]; first compound 8 µM) | relative viability ([4]; first compound 0.08 µM) | relative viability ([4]; first compound 0.8 µM) | relative viability ([4]; first compound 2.53 µM) | relative viability ([4]; first compound 8 µM) | relative viability ([2]; first compound 2.53 µM) | relative viability ([3]; first compound 0.08 µM) | relative viability ([4]; first compound 0.253 µM)
1 | NCI-H2405 | 0.664 | 0.663 | 0.695 | 0.533 | 0.618 | 0.552 | 0.49 | 0.524 | 0.431 | 0.733 | 0.87 | 0.918 | 0.702 | 0.218 | 0.231 | 0.184 | 0.204 | – | – | –
2 | NCI-H1755 | 0.759 | 0.876 | 0.777 | 0.729 | 0.686 | 0.433 | 0.419 | 0.503 | 0.318 | 1.01 | 0.945 | 1.02 | 0.984 | 0.416 | 0.34 | 0.45 | 0.406 | 0.334 | 0.935 | 0.435
3 | HCC-78 | 0.38 | 0.354 | 0.337 | 0.42 | 0.353 | 0.192 | 0.19 | 0.218 | 0.206 | 0.733 | 0.701 | 0.892 | 0.9 | 0.472 | 0.379 | 0.386 | 0.32 | 0.189 | 0.696 | 0.333
4 | LOU-NH91 | 0.798 | 0.776 | 0.728 | 0.726 | 0.685 | 0.502 | 0.529 | 0.429 | 0.51 | 0.759 | 0.618 | 0.734 | 0.631 | 0.554 | 0.512 | 0.559 | 0.533 | 0.512 | 0.72 | 0.521
5 | NCI-H3122 | 1.07 | 0.961 | 1.05 | 0.987 | 0.954 | 0.556 | 0.615 | 0.666 | 0.581 | 0.989 | 1.03 | 1.08 | 1.1 | 0.737 | 0.877 | 0.983 | 0.563 | 0.625 | 1.1 | 0.824
6 | HCC-827 | 0.944 | 0.895 | 0.85 | 0.889 | 0.543 | 1.27 | 1.1 | 1.14 | 1.1 | 0.192 | 0.193 | 0.18 | 0.22 | 0.264 | 0.386 | 0.259 | 0.282 | 0.957 | 0.192 | 0.379
7 | SK-LU-1 | 0.4 | 0.32 | 0.309 | 0.362 | 0.323 | 0.668 | 0.728 | 0.578 | 0.382 | 0.717 | 0.776 | 0.988 | 0.88 | 0.167 | 0.15 | 0.159 | 0.151 | 0.58 | 0.774 | 0.17
8 | NCI-H1975 | 0.69 | 0.817 | 0.779 | 0.94 | 0.531 | 0.274 | 0.293 | 0.305 | 0.256 | 0.788 | 0.831 | 0.759 | 0.697 | 0.416 | 0.351 | 0.277 | 0.366 | 0.281 | 0.801 | 0.313
9 | NCI-H1651 | 0.651 | 0.717 | 0.726 | 0.671 | 0.622 | 0.526 | 0.575 | 0.573 | 0.468 | 0.883 | 0.741 | 0.826 | 0.706 | 0.416 | 0.356 | 0.325 | 0.367 | – | 0.744 | 0.439
10 | LCLC-97TM1 | 0.62 | 0.551 | 0.531 | 0.583 | 0.513 | 0.194 | 0.258 | 0.204 | 0.165 | 1.12 | 0.716 | – | 0.791 | 0.873 | 0.907 | 0.928 | 1.03 | – | 1.13 | 0.734
11 | NCI-H727 | 0.634 | 0.659 | 0.724 | 0.525 | 0.454 | 0.33 | – | 0.356 | 0.355 | 0.809 | 0.742 | 0.754 | 0.863 | 0.375 | 0.326 | 0.49 | 0.41 | 0.264 | 0.632 | 0.473
12 | NCI-H1355 | 0.396 | 0.427 | 0.402 | – | 0.395 | 0.489 | 0.457 | 0.363 | 0.415 | 0.939 | – | 0.955 | 0.823 | 0.763 | 0.476 | 0.553 | 0.554 | 0.251 | 1.03 | 0.638
13 | HOP-62 | 0.918 | 0.93 | 0.901 | 0.771 | 0.712 | 0.966 | 0.891 | 0.818 | 0.524 | 1.09 | 1.06 | 0.997 | 1.01 | 0.637 | 0.567 | 0.642 | 0.628 | 0.494 | 0.939 | 0.569
14 | NCI-H2085 | 0.724 | 0.748 | 0.872 | 0.531 | 0.729 | 0.445 | 0.426 | 0.422 | 0.447 | 0.747 | 0.607 | 0.723 | 0.824 | 0.17 | 0.196 | 0.254 | 0.264 | 0.47 | 0.633 | 0.228
